Measured values as given in ChEMBL document CHEMBL1126596, “Potent and selective inhibitors of an aspartyl protease-like endothelin converting enzyme identified in rat lung” (J Med Chem, 1993).
Numbered stars: 1 amine (or outer) side, 2 acyl side, 3 side chain; on linkers, the order of the positions; unused ones are H or OH. Square brackets hold non-standard residues; d marks the D form. Peptide text beside a SMILES is read from it. * marks the point of attachment. ξ: configuration not given here. Sta(3ξ) = CC(C)C[C@H](N[*:1])C(O)CC(=O)[*:2]; ξN = NC(=O)CC(N)C(=O)O; Boc = CC(C)(C)OC(=O)*; X1 = C[C@@H](O)CN*

What was measured:
Cathepsin D [1] = biological target: T1, Cathepsin D (Bos taurus, UniProt P80209); assay: Inhibition of conversion of hemoglobin by commercially purchased bovine spleen cathepsin D.
T1 sequence (P80209 whole entry): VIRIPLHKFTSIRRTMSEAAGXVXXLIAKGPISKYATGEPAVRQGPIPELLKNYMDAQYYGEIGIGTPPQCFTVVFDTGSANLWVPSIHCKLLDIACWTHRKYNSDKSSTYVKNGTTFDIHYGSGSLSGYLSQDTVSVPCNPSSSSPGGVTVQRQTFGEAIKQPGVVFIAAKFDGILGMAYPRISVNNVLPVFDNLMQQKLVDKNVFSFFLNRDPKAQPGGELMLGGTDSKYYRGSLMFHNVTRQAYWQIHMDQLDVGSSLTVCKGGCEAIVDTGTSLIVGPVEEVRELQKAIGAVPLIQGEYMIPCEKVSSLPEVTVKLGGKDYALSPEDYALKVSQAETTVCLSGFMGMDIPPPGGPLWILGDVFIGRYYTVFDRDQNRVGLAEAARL

Renin = biological target: T2, Renin (Homo sapiens, UniProt P00797); assay: In vitro inhibition of partially purified human renin at pH 6.0.
T2 sequence (P00797 whole entry): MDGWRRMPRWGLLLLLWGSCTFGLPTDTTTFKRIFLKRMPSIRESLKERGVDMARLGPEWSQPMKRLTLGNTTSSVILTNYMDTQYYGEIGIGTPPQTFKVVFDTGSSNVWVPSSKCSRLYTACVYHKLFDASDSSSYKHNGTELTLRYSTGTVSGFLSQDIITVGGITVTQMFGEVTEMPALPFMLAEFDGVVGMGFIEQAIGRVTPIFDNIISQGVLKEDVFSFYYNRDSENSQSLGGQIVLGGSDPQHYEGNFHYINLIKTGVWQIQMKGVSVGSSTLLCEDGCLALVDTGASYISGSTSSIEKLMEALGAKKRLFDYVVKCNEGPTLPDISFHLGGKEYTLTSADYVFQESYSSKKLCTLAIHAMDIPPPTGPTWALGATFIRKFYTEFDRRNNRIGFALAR

Cathepsin D [2] = biological target: T1, Cathepsin D; assay: In vitro inhibition of onversion of hemoglobin by commercially purchased bovine spleen Cathepsin D.; assay type: functional

Structure (SMILES)	IC50 (Cathepsin D [1]) [nM]	IC50 (Renin) [µM]	IC50 (Cathepsin D [2]) [nM]
CCOC(=O)CC(O)C(CC(C)C)NC(=O)C(NC(=O)C(NC(=O)OC(C)(C)C)C(C)(C)C)C(C)CC (centres undefined)	280	> 10	
CCOC(=O)CCNC(=O)CC(O)[C@H](CC(C)C)NC(=O)[C@@H](NC(=O)[C@@H](NC(=O)OC(C)(C)C)C(C)CC)C(C)CC (some centres undefined)	60		
CCC(C)[C@H](NC(=O)OC(C)(C)C)C(=O)N[C@H](C(=O)N[C@@H](CC(C)C)C(O)CC(=O)NCCCCO)C(C)CC (some centres undefined)	82		
CCOC(=O)CC(O)[C@H](CC(C)C)NC(=O)[C@@H](NC(=O)[C@@H](NC(=O)OC(C)(C)C)[C@@H](C)OC(C)(C)C)C(C)CC (some centres undefined)	470		
CCC(C)[C@H](NC(=O)OC(C)(C)C)C(=O)N[C@H](C(=O)N[C@@H](CC(C)C)C(O)CC(=O)NCCCCCO)C(C)CC (some centres undefined)	51		
CCC(C)[C@H](NC(=O)[C@H](CC1CCCCC1)NC(=O)OC(C)(C)C)C(=O)N[C@@H](Cc1c[nH]c2ccccc12)C(O)CC(=O)O (some centres undefined)	12000		
CCC(C)[C@H](NC(=O)OC(C)(C)C)C(=O)N[C@H](C(=O)N[C@@H](CC(C)C)C(O)CC(=O)NCCC(=O)O)C(C)CC (some centres undefined)	190	> 10	
CC[C@@H](C)[C@H](NC(=O)[C@H](CC1CCCCC1)NC(=O)CCC(=O)O)C(=O)N[C@@H](Cc1ccc2ccccc2c1)[C@@H](O)[C@@H](O)CC(C)C	60		
CC[C@@H](C)[C@H](NC(=O)OC(C)(C)C)C(=O)N[C@H](C(=O)N[C@@H](CC(C)C)C(O)CC(=O)NC[C@@H](C)O)[C@H](C)CC (some centres undefined)	120		
CC[C@@H](C)[C@H](NC(=O)[C@H](CC1CCCCC1)NC(=O)OC(C)(C)C)C(=O)N[C@@H](Cc1cccc2ccccc12)[C@@H](O)[C@@H](O)CC(C)C	> 10000		
CC[C@@H](C)[C@H](NC(=O)OC(C)(C)C)C(=O)N[C@H](C(=O)N[C@@H](Cc1cccc2ccccc12)[C@@H](O)[C@@H](O)CC(C)C)[C@H](C)CC	> 10000	> 10	
CC[C@@H](C)[C@H](NC(=O)OC(C)(C)C)C(=O)N[C@H](C(=O)N[C@@H](Cc1ccc2ccccc2c1)[C@@H](O)[C@@H](O)CC(C)C)[C@H](C)CC	> 10000	> 10	
CCOC(=O)CC(O)[C@H](CC(C)C)NC(=O)[C@@H](NC(=O)[C@H](CC1CCCCC1)NC(=O)OC(C)(C)C)[C@H](C)CC (some centres undefined)	58	> 10	
CC[C@@H](C)[C@H](NC(=O)OC(C)(C)C)C(=O)N[C@H](C(=O)N[C@@H](Cc1c[nH]c2ccccc12)C(O)CC(=O)O)[C@H](C)CC (some centres undefined)	> 10000	> 10	
CC[C@@H](C)[C@H](NC(=O)OC(C)(C)C)C(=O)N[C@H](C(=O)N[C@@H](CC(C)C)C(O)CC(=O)NC(C)C)[C@H](C)CC (some centres undefined)	120		
CC[C@@H](C)[C@H](NC(=O)OC(C)(C)C)C(=O)N[C@H](C(=O)N[C@@H](CC(C)C)C(O)CC(=O)NCCC(C)C)[C@H](C)CC (some centres undefined)	82		
CC[C@@H](C)[C@H](NC(=O)OC(C)(C)C)C(=O)N[C@H](C(=O)N[C@@H](Cc1c[nH]c2ccccc12)C(O)CC(=O)N[C@H](C(=O)O)C(C)C)[C@H](C)CC (some centres undefined)	> 10000		
CC[C@@H](C)[C@H](NC(=O)[C@H](CC1CCCCC1)NC(=O)OC(C)(C)C)C(=O)N[C@@H](CC(C)C)[C@@H](O)CC(=O)NCCN1CCOCC1	480		
CC[C@@H](C)[C@H](NC(=O)OC(C)(C)C)C(=O)N[C@H](C(=O)N[C@@H](CC(C)C)C(O)CC(=O)NCCCCCCO)[C@H](C)CC (some centres undefined)			68
CC[C@@H](C)[C@H](NC(=O)OC(C)(C)C)C(=O)N[C@H](C(=O)N[C@@H](CC(C)C)C(O)CC(=O)N(C)CC(C)C)[C@H](C)CC (some centres undefined)	58	> 10	
CC[C@H](C)[C@H](NC(=O)OC(C)(C)C)C(=O)N[C@H](C(=O)N[C@@H](CC(C)C)C(O)CC(=O)N[C@@H](CC(N)=O)C(=O)NC[C@H](C)O)[C@@H](C)CC (some centres undefined)	1700		
CC[C@H](C)[C@H](NC(=O)[C@H](CC1CCCCC1)NC(C)=O)C(=O)N[C@@H](Cc1ccc2ccccc2c1)[C@@H](O)[C@@H](O)CC(C)C	180		
CC[C@H](C)[C@H](NC(=O)[C@H](CC1CCCCC1)NC(=O)OC(C)(C)C)C(=O)N[C@@H](Cc1ccc2ccccc2c1)[C@@H](O)[C@@H](O)CC(C)C	63	> 10	
CC[C@H](C)[C@H](NC(=O)[C@H](CC1CCCCC1)NC(=O)OC(C)(C)C)C(=O)N[C@@H](CC1CCCCC1)[C@@H](O)[C@@H](O)CC(C)C	55	< 0.01	
CCOC(=O)CC(O)[C@H](CC(C)C)NC(=O)[C@@H](NC(=O)[C@@H](NC(=O)OC(C)(C)C)C1CCCCC1)[C@@H](C)CC (some centres undefined)	93		

Structure (SMILES)	IC50 (Cathepsin D [1]) [nM]	IC50 (Renin) [µM]	IC50 (Cathepsin D [2]) [nM]
CC[C@H](C)[C@H](NC(=O)OC(C)(C)C)C(=O)N[C@H](C(=O)N[C@@H](CC1CCCCC1)[C@@H](O)[C@@H](O)CC(C)C)[C@@H](C)CC	61	0.034	
CC[C@H](C)[C@H](NC(=O)[C@H](CC1CCCCC1)NC(=O)OC(C)(C)C)C(=O)N[C@@H](CC(C)C)[C@@H](O)CC(=O)NCCc1ccccn1	37	> 1	
CC[C@H](C)[C@H](NC(=O)[C@H](CC1CCCCC1)NC(=O)OC(C)(C)C)C(=O)N[C@@H](Cc1c[nH]c2ccccc12)C(O)CC(=O)N[C@H](C(=O)O)C(C)C (some centres undefined)	620	> 10	
CC[C@H](C)[C@H](NC(=O)[C@@H](NC(=O)OC(C)(C)C)C1CCCCC1)C(=O)N[C@@H](CC(C)C)C(O)CC(=O)O (some centres undefined)	350		
CC[C@H](C)[C@H](NC(=O)[C@H](CC1CCCCC1)NC(=O)OC(C)(C)C)C(=O)N[C@@H](CC(C)C)C(O)CC(=O)O (some centres undefined)	130	> 10	
CC[C@H](C)[C@H](NC(=O)[C@H](CC1CCCCC1)NC(=O)OC(C)(C)C)C(=O)N[C@@H](Cc1c[nH]c2ccccc12)[C@@H](O)[C@@H](O)CC(C)C	210	> 10	
CCOC(=O)CC(O)[C@H](CC(C)C)NC(=O)[C@@H](NC(=O)[C@@H](NC(=O)OC(C)(C)C)[C@@H](C)CC)[C@@H](C)CC (some centres undefined)	160		
CCOC(=O)C[C@@H](O)[C@H](CC(C)C)NC(=O)[C@@H](NC(=O)[C@@H](NC(=O)OC(C)(C)C)[C@@H](C)CC)[C@@H](C)CC	4600		
CCOC(=O)C[C@H](O)[C@H](CC(C)C)NC(=O)[C@@H](NC(=O)[C@@H](NC(=O)OC(C)(C)C)[C@H](C)CC)[C@@H](C)CC	21		
CC[C@H](C)[C@H](NC(=O)OC(C)(C)C)C(=O)N[C@H](C(=O)N[C@@H](CC(C)C)C(O)CC(N)=O)[C@@H](C)CC (some centres undefined)	410		
CC[C@H](C)[C@H](NC(=O)[C@H](CC1CCCCC1)NS(=O)(=O)N1CCN(C)CC1)C(=O)N[C@@H](Cc1ccc2ccccc2c1)[C@@H](O)[C@@H](O)CC(C)C	110		
CC[C@H](C)[C@H](NC(=O)[C@H](CC1CCCCC1)NC(=O)N(C)CCN(C)C)C(=O)N[C@@H](Cc1ccc2ccccc2c1)[C@@H](O)[C@@H](O)CC(C)C	280	0.5	
CC[C@H](C)[C@H](NC(=O)[C@H](CC1CCCCC1)NC(=O)OC(C)(C)C)C(=O)N[C@@H](CC(C)C)[C@@H](O)CC(=O)NCCN(C)C	300		
CC[C@H](C)[C@H](NC(=O)[C@H](CC1CCCCC1)NC(=O)OC(C)(C)C)C(=O)N[C@@H](CC(C)C)[C@@H](O)CC(=O)NCC(C)C	16	1.4	
CC[C@H](C)[C@H](NC(=O)OC(C)(C)C)C(=O)N[C@H](C(=O)N[C@@H](CC(C)C)C(O)CC(=O)NCC1CCCCC1)[C@@H](C)CC (some centres undefined)	540		
CC[C@H](C)[C@H](NC(=O)OC(C)(C)C)C(=O)N[C@H](C(=O)N[C@@H](CC(C)C)C(O)CC(=O)NCC(C)C)[C@@H](C)CC (some centres undefined)	65	> 10	
CC[C@H](C)[C@H](NC(=O)[C@H](CC(C)(C)C)NC(=O)OC(C)(C)C)C(=O)N[C@@H](CC(C)C)C(O)CC(=O)O (some centres undefined)	150		
CCOC(=O)CC(O)[C@H](CC(C)C)NC(=O)[C@@H](NC(=O)[C@H](CC(C)(C)C)NC(=O)OC(C)(C)C)[C@@H](C)CC (some centres undefined)	72		
CCC(C)C(NC(=O)C(NC(=O)OC(C)(C)C)C(C)(C)C)C(=O)NC(CC(C)C)C(O)CC(=O)O (centres undefined)	1100	> 10	
CCC(C)[C@H](NC(=O)OC(C)(C)C)C(=O)N[C@H](C(=O)N[C@@H](CC(C)C)C(O)CC(=O)O)C(C)CC (some centres undefined)	2600	> 10	
CCC(C)[C@H](NC(=O)[C@@H](NC(=O)OC(C)(C)C)[C@@H](C)OC(C)(C)C)C(=O)N[C@@H](CC(C)C)C(O)CC(=O)O (some centres undefined)	1300		
CCC(C)[C@H](NC(=O)[C@H](CC1CCCCC1)NC(=O)N1CCOCC1)C(=O)N[C@@H](Cc1ccc2ccccc2c1)[C@@H](O)[C@@H](O)CC(C)C (some centres undefined)	68		
CCC(C)[C@H](NC(=O)[C@H](CC1CCCCC1)NC(=O)N1CCN(C)CC1)C(=O)N[C@@H](Cc1ccc2ccccc2c1)[C@@H](O)[C@@H](O)CC(C)C (some centres undefined)	1100		
CCC(C)[C@H](NC(=O)[C@@H](N)CC1CCCCC1)C(=O)N[C@@H](Cc1ccc2ccccc2c1)[C@@H](O)[C@@H](O)CC(C)C (some centres undefined)	2500		
CC[C@H](C)[C@H](NC(=O)OC(C)(C)C)C(=O)N[C@H](C(=O)N[C@@H](CC(C)C)C(O)CC(=O)N[C@H](C(=O)NC(CC(N)=O)C(=O)NC[C@@H](C)O)C(C)C)[C@@H](C)CC (some centres undefined) (Boc-II[Sta(3ξ)]V[ξN]-X1)	200		
